{"source": "patent US9695155B2", "about": "“Herbicidal substituted pyrimidinyloxy benzene compounds” (E. I. DU PONT DE NEMOURS AND COMPANY, priority 2013, dated 2017)", "key": {"[1]": {"tested_on": "yellow nutsedge", "assay": "Test C postemergence", "format": "in vivo, Cyperus esculentus", "settings": "for Plant response rating (0 to 100), Nutsedge, Yellow: postemergence; for Plant response rating, Nutsedge, Yellow: Postemergence, scale 0 to 100 (0 no effect, 100 complete control)", "procedure,_shortened": "(§1)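 Greenhouse herbicide screen. Pre: seeded loam/sand, sprayed at planting. Post: 1–4 leaf plants (2–18 cm) in peat-based mix. Formulation: solvent mixture + surfactant, non-phytotoxic. Readout: visual % control vs untreated, 13–15 d; dash = not tested.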"}, "[2]": {"tested_on": "wild oat", "assay": "Test C postemergence", "format": "in vivo, Avena fatua", "settings": "for Plant response rating (0 to 100), Oat, Wild: postemergence; for Plant response rating, Oat, Wild: Postemergence, scale 0 to 100 (0 no effect, 100 complete control)", "procedure,_shortened": "as §1"}, "[3]": {"tested_on": "barnyardgrass", "assay": "Test A preemergence", "format": "in vivo, Echinochloa crus-galli", "procedure,_shortened": "(§2)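 Pre- and postemergence greenhouse screen. Soil: loam + sand. Spray carrier: solvent mixture, non-phytotoxic, with surfactant. Post timing at 1–2 leaves, height 2–10 cm. Readout: visual injury on a 0–100 scale roughly 10 days after application, untreated plants as reference.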"}, "[4]": {"tested_on": "morningglory", "assay": "Test C postemergence", "format": "in vivo, Ipomoea coccinea", "settings": "for Plant response rating (0 to 100), Morningglory: postemergence; for Plant response rating, Morningglory: Postemergence, scale 0 to 100 (0 no effect, 100 complete control)", "procedure,_shortened": "as §1"}, "[5]": {"tested_on": "corn", "assay": "Test C preemergence", "format": "in vivo, Zea mays", "settings": "for Corn plant response rating: preemergence, scale 0 (no effect) to 100 (complete control)", "description": "Seeds of plant species selected from blackgrass (Alopecurus myosuroides), Italian ryegrass (Lolium multiflorum), wheat, winter (winter wheat, Triticum aestivum), galium (catchweed bedstraw, Galium aparine), corn (Zea mays), large (Lg) crabgrass (Digitaria sanguinalis), giant foxtail (Setaria faberii), johnsongrass (Sorghum halepense), lambsquarters (Chenopodium album), morningglory (Ipomoea coccinea), yellow nutsedge (Cyperus esculentus), pigweed (Amaranthus retroflexus), ragweed (common ragweed, Ambrosia elatior), soybean (Glycine max), barnyardgrass (Echinochloa crus-galli), oilseed rape (Brassica napus), waterhemp (common waterhemp, Amaranthus rudis), kochia (Kochia scoparia), wild oat (Avena fatua), surinam grass (Brachiaria decumbens), foxtail, green (green foxtail, Setaria viridis), goosegrass (Eleusine indica), bromegrass, downy (downy bromegrass, Bromus tectorum), nightshade (eastern black nightshade, Solanum ptycanthum), cocklebur (common cocklebur, Xanthium strumarium), cupgrass, woolly (woolly cupgrass, Eriochloa villosa), bermudagrass (Cynodon dactylon), sunflower, (common oilseed sunflower, Helianthus annuus), Russian thistle (Salsola kali), and velvetleaf (Abutilon theophrasti) were planted into a blend of loam soil and sand and treated preemergence with test chemicals formulated in a non-phytotoxic solvent mixture which included a surfactant.\nAt the same time, plants selected from these crop and weed species and also barley, winter (winter barley, Hordeum vulgare), windgrass (Apera spica-venti), chickweed (common chickweed, Stellaria media), deadnettle (henbit deadnettle, Lamium amplexicaule), and canarygrass (littleseed canarygrass, Phalaris minor) were planted in pots containing Redi-Earth® planting medium (Scotts Company, 14111 Scottslawn Road, Marysville, Ohio 43041) comprising spaghnum peat moss, vermiculite, wetting agent and starter nutrients and treated with postemergence applications of test chemicals formulated in the same manner. Plants ranged in height from 2 to 18 cm (1- to 4-leaf stage) for postemergence treatments. Treated plants and controls were maintained in a greenhouse for 13 to 15 days, after which time all species were compared to controls and visually evaluated. Plant response ratings, summarized in Table C, are based on a scale of 0 to 100 where 0 is no effect and 100 is complete control. A dash (-) response means no test result."}, "[6]": {"tested_on": "blackgrass", "assay": "Test C postemergence", "format": "in vivo, Alopecurus myosuroides", "settings": "for Plant response rating (0 to 100), Blackgrass: postemergence; for Plant response rating, Blackgrass: Postemergence, scale 0 to 100 (0 no effect, 100 complete control)", "procedure,_shortened": "as §1"}, "[7]": {"tested_on": "yellow nutsedge", "assay": "Test C preemergence", "format": "in vivo, Cyperus esculentus", "settings": "for Nutsedge, Yellow plant response rating: preemergence, scale 0 (no effect) to 100 (complete control)", "procedure,_shortened": "as §1"}, "[8]": {"tested_on": "morningglory", "assay": "Test C preemergence", "format": "in vivo, Ipomoea coccinea", "settings": "for Morningglory plant response rating: preemergence, scale 0 (no effect) to 100 (complete control)", "procedure,_shortened": "as §1"}, "[9]": {"tested_on": "kochia", "assay": "Test C postemergence", "format": "in vivo, Kochia scoparia", "settings": "for Plant response rating (0 to 100), Kochia: postemergence; for Plant response rating, Kochia: Postemergence, scale 0 to 100 (0 no effect, 100 complete control)", "procedure,_shortened": "as §1"}, "[10]": {"tested_on": "galium", "assay": "Test C preemergence", "format": "in vivo, Galium aparine", "settings": "for Galium plant response rating: preemergence, scale 0 (no effect) to 100 (complete control)", "procedure,_shortened": "as §1"}, "[11]": {"tested_on": "rice", "assay": "Test B flooded paddy test", "format": "in vivo, Oryza sativa", "settings": "Flood, 250 g ai/ha; 0 to 100 scale where 0 is no effect and 100 is complete control", "procedure,_shortened": "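Visual ratings on a 0 to 100 scale, where 100 means complete control, compared treated plants with controls after 13 to 15 days in a greenhouse. Treatment went into paddy water 3 cm deep over the soil, applied to plants at the 2-leaf stage.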"}, "[12]": {"tested_on": "velvetleaf", "assay": "Test A postemergence", "format": "in vivo, Abutilon theophrasti", "procedure,_shortened": "as §2"}, "[13]": {"settings": "125 g ai/ha, 0 to 100 scale where 0 is no effect and 100 is complete control"}, "[14]": {"settings": "Preemergence, 31 g ai/ha, scale 0 to 100, 0 no effect, 100 complete control"}}, "data": [{"smiles": "FC(F)(F)c1cnn(-c2ccccc2Oc2ncc(Cl)cn2)c1", "note": "[Compound 16]", "values": [{"measurement": "Plant response rating (0 to 100), Nutsedge, Yellow", "setting": "[1]; 125 g ai/ha", "result": 5}, {"measurement": "Plant response rating (0 to 100), Nutsedge, Yellow", "setting": "[1]; 250 g ai/ha", "result": 20}, {"measurement": "Plant response rating, Nutsedge, Yellow", "setting": "[1]; 31 g ai/ha, 13 to 15 days", "result": 5}, {"measurement": "Plant response rating, Nutsedge, Yellow", "setting": "[1]; 62 g ai/ha", "result": 5}, {"measurement": "Plant response rating (0 to 100), Oat, Wild", "setting": "[2]; 125 g ai/ha", "result": 35}, {"measurement": "Plant response rating (0 to 100), Oat, Wild", "setting": "[2]; 250 g ai/ha", "result": 45}, {"measurement": "Plant response rating, Oat, Wild", "setting": "[2]; 31 g ai/ha, 13 to 15 days", "result": 25}, {"measurement": "Plant response rating, Oat, Wild", "setting": "[2]; 62 g ai/ha", "result": 35}, {"measurement": "Barnyardgrass plant response rating", "setting": "[3]; [13]", "result": 100}, {"measurement": "Barnyardgrass plant response rating", "setting": "[3]; 500 g ai/ha, 0 to 100 scale, 0 no effect, 100 complete control, approx. 10 days", "result": 100}, {"measurement": "Plant response rating (0 to 100), Morningglory", "setting": "[4]; 125 g ai/ha", "result": 80}, {"measurement": "Plant response rating (0 to 100), Morningglory", "setting": "[4]; 250 g ai/ha", "result": 85}, {"measurement": "Plant response rating, Morningglory", "setting": "[4]; 31 g ai/ha, 13 to 15 days", "result": 65}, {"measurement": "Plant response rating, Morningglory", "setting": "[4]; 62 g ai/ha", "result": 80}, {"measurement": "Corn plant response rating", "setting": "[5]; 62 g ai/ha", "result": 15}, {"measurement": "Corn plant response rating", "setting": "[5]; 125 g ai/ha", "result": 25}, {"measurement": "Corn plant response rating", "setting": "[5]; 250 g ai/ha", "result": 35}, {"measurement": "Plant response rating, Corn", "setting": "[5]; [14]", "result": 0}, {"measurement": "Plant response rating (0 to 100), Blackgrass", "setting": "[6]; 125 g ai/ha", "result": 30}, {"measurement": "Plant response rating (0 to 100), Blackgrass", "setting": "[6]; 250 g ai/ha", "result": 70}, {"measurement": "Plant response rating, Blackgrass", "setting": "[6]; 31 g ai/ha, 13 to 15 days", "result": 5}, {"measurement": "Plant response rating, Blackgrass", "setting": "[6]; 62 g ai/ha", "result": 30}, {"measurement": "Nutsedge, Yellow plant response rating", "setting": "[7]; 62 g ai/ha", "result": 25}, {"measurement": "Nutsedge, Yellow plant response rating", "setting": "[7]; 125 g ai/ha", "result": 65}, {"measurement": "Nutsedge, Yellow plant response rating", "setting": "[7]; 250 g ai/ha", "result": 65}, {"measurement": "Plant response rating, Nutsedge, Yellow", "setting": "[7]; [14]", "result": 15}, {"measurement": "Morningglory plant response rating", "setting": "[8]; 62 g ai/ha", "result": 75}, {"measurement": "Morningglory plant response rating", "setting": "[8]; 125 g ai/ha", "result": 90}, {"measurement": "Morningglory plant response rating", "setting": "[8]; 250 g ai/ha", "result": 98}, {"measurement": "Plant response rating, Morningglory", "setting": "[8]; [14]", "result": 10}, {"measurement": "Plant response rating (0 to 100), Kochia", "setting": "[9]; 125 g ai/ha", "result": 98}, {"measurement": "Plant response rating (0 to 100), Kochia", "setting": "[9]; 250 g ai/ha", "result": 100}, {"measurement": "Plant response rating, Kochia", "setting": "[9]; 31 g ai/ha, 13 to 15 days", "result": 35}, {"measurement": "Plant response rating, Kochia", "setting": "[9]; 62 g ai/ha", "result": 80}, {"measurement": "Galium plant response rating", "setting": "[10]; 62 g ai/ha", "result": 100}, {"measurement": "Galium plant response rating", "setting": "[10]; 125 g ai/ha", "result": 100}, {"measurement": "Galium plant response rating", "setting": "[10]; 250 g ai/ha", "result": 100}, {"measurement": "Plant response rating, Galium", "setting": "[10]; [14]", "result": 95}, {"measurement": "Plant response rating, Rice", "setting": "[11]", "result": 40}, {"measurement": "Plant response rating, Velvetleaf", "setting": "[12]; [13]", "result": 100}, {"measurement": "Plant response rating, Velvetleaf", "setting": "[12]; 500 g ai/ha, 0 to 100 scale, 0 no effect, 100 complete control", "result": 100}]}]}
